Assay results taken from publication PMC4062819, “N-Demethylation and N-oxidation of imipramine in rat thoracic aortic endothelial cells” (In Vitro Cellular & Developmental Biology. Animal, 2014).

What was measured:
CYP2C11 and CYP3A2 = conditions: read-out: K m (μmol/L); NADPH-regenerating system; pH 7.4; 37 °C; apparent Km; homogenate, mixed CYPs assigned by anti-CYP antibodies
From the text: desipramine (N-demethylate) formation in cell homogenate, HPLC-UV on CYP2C11 and CYP3A2

[1] = system: T1, FMO (flavin-containing monooxygenase); experiment: imipramine N-oxide formation in cell homogenate, HPLC-UV; format: biochemical, Rattus norvegicus; conditions: NADPH-regenerating system, pH 7.4, 37 °C, apparent Km, FMO isoform unresolved
T1 construct: gene Fmo1; native, homogenate of cultured thoracic aortic endothelial cells; FMO isoform not resolved
From the text: imipramine N-oxide formation in cell homogenate, HPLC-UV on FMO (flavin-containing monooxygenase)

[2] = system: T1, FMO (flavin-containing monooxygenase); experiment: inhibition of imipramine N-oxidation in cell homogenate, HPLC-UV; format: biochemical, Rattus norvegicus; conditions: competitive with imipramine, methimazole 1 μmol/L, NADPH-regenerating system, 37 °C, FMO isoform unresolved, read-out: apparent K i

| SMILES | Km (CYP2C11 and CYP3A2) [µmol/L] | Km [1] [µM] | Ki [2] [nM] |
| --- | --- | --- | --- |
| CN(C)CCCN1c2ccccc2CCc2ccccc21 [imipramine] | 39.9 ± 5.3 | 20 ± 4.5 | – |
| Cn1cc[nH]c1=S [methimazole] | – | – | 800 |
